Test system: CD14^+ dendritic cells
Experiment: FACS evaluation of dendritic cell maturation markers CD40, CD80, MHCII and CD86
Assay type: cell-based, Human
Procedure: ISOLATION OF CD14^+ MONOCYTES FROM PBMCs: On Day 1 of the study, PBMC cells were obtained from a human donor according to (1a)-(1d) above. Monocytes were then isolated from these PBMCs on the same day (Day 1) according to steps (2a)-(2k) as follows: (2a) The number of the PBMC cells was determined. (2b) The cell suspension was centrifuged at 300×g for 10 minutes; and the supernatant was aspirated completely. (2c) The cell pellet was re-suspended in 80 μL of FACS buffer per 10^7 total cells. (2d) Per 10^7 total cells, 20 μL of CD14 MicroBeads were added. (2e) Mix well and incubate for 15 minutes in the refrigerator (2 to 8° C.). (2f) The cells were washed by adding 1 to 2 mL of FACS buffer per 10^7 cells and centrifuged at ×1500 rpm for 10 min. (2g) The cells were re-suspended up to 10^8 cells in 500 μL of FACS buffer. (2h) The column was placed in magnetic field of a suitable MACS Separator. (2i) The column was prepared by rinsing with 3 mL of FACS buffer. (2j) The cell suspension was applied onto the column. Unlabeled cells that pass through were collected and the column was washed for three times each with 3 mL of FACS buffer. Total effluent, which was the unlabeled cell fraction, was collected. Washing steps were performed by adding FACS buffer three times. New buffer was added only when the column reservoir became empty. (2k) The column was then removed from the separator and placed on a suitable collection tube. 5 mL of FACS buffer was pipetted onto the column. The magnetically labeled cells were immediately flushed out by firmly pushing the plunger into the column. This fraction represented the CD14 positive monocytes.
DIFFERENTIATION OF MONOCYTES INTO CD14^+ DENDRITIC CELLS: From the CD14 positive monocytes obtained from (2k), dendritic cells (DCs) were differentiated according to steps (2l)-(2p) as follows: (21) 5×10^6 cells were re-suspended per 5 mL of ImmunoCult™ DC Differentiation Medium and mixed well. Then 5 mL of the cell suspension was added to a T-25 cm^2 flask and the cells were incubated for 3 days at 37° C. and 5% CO2. (2m) Meanwhile, in parallel, the monocytes were treated with 3, 1, 0.3, 0.1, 0.01 and 0 μM plinabulin, respectively, in the wells of a 6-well plate and incubated for 3 days. (2n) On Day 4, the medium was removed from the T-25 cm^2 flask by pipetting and added to a 14-mL centrifuge tube. 5 mL of fresh ImmunoCult™ DC Differentiation Medium was quickly added to the culture flask. (2o) The 14 mL tube containing medium and cells (from step (2n)) was centrifuged at 300×g for 10 min. The supernatant was removed and discarded. Cells were resuspended in a small volume (i.e. 50 μL or up to 10% of the original volume) of fresh ImmunoCult™ DC Differentiation Medium and returned to the culture flask in order to save non-adherent or loosely adherent cells. The cells were then incubated at 37° C. for 2 days. (2p) Also on Day 4, 90% differentiation medium for the DCs were removed from the 6-well plate, and 90% fresh differentiation medium were added. The cells were treated with 3, 1, 0.3, 0.1, 0.01 and 0 μM plinabulin as stated above in (2m) (Study Arm #1). After another 2 days incubation, the dendritic cell maturation was evaluated by FACS for CD40, CD80, MHCII and CD86. The rest cells continued without treatment to steps (4a)-(4d) below for MLR assay. […]

[1] = treated during differentiation or maturation

CC(C)(C)c1[nH]cnc1/C=c1\[nH]c(=O)/c(=C/c2ccccc2)[nH]c1=O [Plinabulin, (3Z,6Z)-3-Benzylidene-6-{[5-(2-methyl-2-propanyl)-1H-imidazol-4-yl]methylene}-2,5-piperazinedione]
CD86 expression on DCs (cells treated during DC maturation (Study Arm #A2)): increased CD86 expression on DCs
CD86 expression on DCs (cells treated during differentiation from CD14 cells (Study Arm #A1)): increased CD86 expression on DCs
CD40 expression on DCs [1]: no discernible increase
CD80 expression on DCs [1]: no discernible increase
MHCII expression on DCs [1]: no discernible increase
